Assay results published in article doi:10.1101/2021.04.08.439011v1 (biorxiv, 2021).
Read-outs that look alike come from different tables or passages of the source.

Assays:
[1] = target: MAP3K1 (Homo sapiens, UniProt Q13233); conditions: 0.1 µM; binder
[2] = target: PCTK1 (Homo sapiens, UniProt Q00536); conditions: 0.1 µM; binder
[3] = target: RIOK2 (Homo sapiens, UniProt Q9BVS4); conditions: 0.1 µM; binder
[4] = target: IKK-beta (Homo sapiens, UniProt O14920); conditions: 0.1 µM; binder
[5] = target: MYO3A (Homo sapiens, UniProt Q8NEV4); conditions: 0.1 µM; binder
[6] = target: MET(M1250T) (Homo sapiens, UniProt P08581, M1250T); conditions: 0.1 µM; binder
[7] = target: KIT(V559D,V654A) (Homo sapiens, UniProt P10721, V559D/V654A); conditions: 0.1 µM; binder
[8] = target: RET(M918T) (Homo sapiens, UniProt P07949, M918T); conditions: 0.1 µM; binder
[9] = target: CDKL5 (Homo sapiens, UniProt O76039); conditions: 0.1 µM; binder
[10] = target: WNK2 (Homo sapiens, UniProt Q9Y3S1); conditions: 0.1 µM; binder
[11] = target: CDKL3 (Homo sapiens, UniProt Q8IVW4); conditions: 0.1 µM; binder
Chain of CDKL3 (Q8IVW4 whole entry): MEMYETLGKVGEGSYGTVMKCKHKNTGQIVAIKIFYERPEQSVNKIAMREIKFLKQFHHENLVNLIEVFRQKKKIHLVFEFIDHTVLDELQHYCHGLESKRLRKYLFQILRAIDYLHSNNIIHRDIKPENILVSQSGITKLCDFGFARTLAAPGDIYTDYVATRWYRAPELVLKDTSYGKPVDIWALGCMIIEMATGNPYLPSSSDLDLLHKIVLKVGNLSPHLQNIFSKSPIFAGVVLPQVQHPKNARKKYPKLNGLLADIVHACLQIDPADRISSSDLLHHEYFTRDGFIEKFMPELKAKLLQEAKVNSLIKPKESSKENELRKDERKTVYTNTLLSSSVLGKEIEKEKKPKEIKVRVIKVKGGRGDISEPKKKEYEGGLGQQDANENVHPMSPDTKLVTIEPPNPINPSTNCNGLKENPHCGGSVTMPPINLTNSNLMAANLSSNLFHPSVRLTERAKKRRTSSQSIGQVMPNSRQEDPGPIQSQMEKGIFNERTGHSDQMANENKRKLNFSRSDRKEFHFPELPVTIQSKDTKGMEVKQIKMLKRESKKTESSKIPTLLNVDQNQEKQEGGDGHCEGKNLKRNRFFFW

[12] = target: LZK (Homo sapiens, UniProt O43283); conditions: 0.1 µM; binder
Chain of LZK (O43283 whole entry): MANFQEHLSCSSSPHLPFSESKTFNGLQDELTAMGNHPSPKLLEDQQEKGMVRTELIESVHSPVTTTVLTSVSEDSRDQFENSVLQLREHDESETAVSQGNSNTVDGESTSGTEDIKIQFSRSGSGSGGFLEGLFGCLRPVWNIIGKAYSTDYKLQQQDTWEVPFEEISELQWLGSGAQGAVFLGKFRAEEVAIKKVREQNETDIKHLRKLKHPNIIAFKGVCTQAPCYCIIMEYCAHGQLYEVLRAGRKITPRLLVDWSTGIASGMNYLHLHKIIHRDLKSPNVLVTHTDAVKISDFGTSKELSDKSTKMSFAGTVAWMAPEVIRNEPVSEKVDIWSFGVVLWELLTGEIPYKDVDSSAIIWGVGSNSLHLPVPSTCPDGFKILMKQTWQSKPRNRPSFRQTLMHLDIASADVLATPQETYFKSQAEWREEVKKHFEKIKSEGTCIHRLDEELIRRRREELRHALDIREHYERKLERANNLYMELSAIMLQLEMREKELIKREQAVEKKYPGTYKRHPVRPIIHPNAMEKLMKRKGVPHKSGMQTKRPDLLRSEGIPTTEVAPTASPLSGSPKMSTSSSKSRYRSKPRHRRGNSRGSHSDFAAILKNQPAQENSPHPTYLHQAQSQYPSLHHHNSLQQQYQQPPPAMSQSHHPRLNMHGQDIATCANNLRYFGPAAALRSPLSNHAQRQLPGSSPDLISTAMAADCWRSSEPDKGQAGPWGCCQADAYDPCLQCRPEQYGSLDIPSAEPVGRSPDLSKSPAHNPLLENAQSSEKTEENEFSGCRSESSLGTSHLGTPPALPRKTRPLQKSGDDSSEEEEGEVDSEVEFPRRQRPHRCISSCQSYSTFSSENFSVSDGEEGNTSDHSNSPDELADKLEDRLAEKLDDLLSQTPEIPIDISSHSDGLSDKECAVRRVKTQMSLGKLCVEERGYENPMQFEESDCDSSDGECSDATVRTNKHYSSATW

[13] = target: NEK3 (Homo sapiens, UniProt P51956); conditions: 0.1 µM; binder
[14] = target: GSK3B (Homo sapiens, UniProt P49841); conditions: 0.1 µM; binder
[15] = target: YES (Homo sapiens, UniProt P07947); conditions: 0.1 µM; binder
[16] = target: TNNI3K (Homo sapiens, UniProt Q59H18); conditions: 0.1 µM; binder
[17] = target: MAP3K2 (Homo sapiens, UniProt Q9Y2U5); conditions: 0.1 µM; binder
[18] = target: FGFR2 (Homo sapiens, UniProt P21802); conditions: 0.1 µM; binder
[19] = target: CSF1R (Homo sapiens, UniProt P07333); conditions: 0.1 µM, binder
Chain of CSF1R (P07333 whole entry): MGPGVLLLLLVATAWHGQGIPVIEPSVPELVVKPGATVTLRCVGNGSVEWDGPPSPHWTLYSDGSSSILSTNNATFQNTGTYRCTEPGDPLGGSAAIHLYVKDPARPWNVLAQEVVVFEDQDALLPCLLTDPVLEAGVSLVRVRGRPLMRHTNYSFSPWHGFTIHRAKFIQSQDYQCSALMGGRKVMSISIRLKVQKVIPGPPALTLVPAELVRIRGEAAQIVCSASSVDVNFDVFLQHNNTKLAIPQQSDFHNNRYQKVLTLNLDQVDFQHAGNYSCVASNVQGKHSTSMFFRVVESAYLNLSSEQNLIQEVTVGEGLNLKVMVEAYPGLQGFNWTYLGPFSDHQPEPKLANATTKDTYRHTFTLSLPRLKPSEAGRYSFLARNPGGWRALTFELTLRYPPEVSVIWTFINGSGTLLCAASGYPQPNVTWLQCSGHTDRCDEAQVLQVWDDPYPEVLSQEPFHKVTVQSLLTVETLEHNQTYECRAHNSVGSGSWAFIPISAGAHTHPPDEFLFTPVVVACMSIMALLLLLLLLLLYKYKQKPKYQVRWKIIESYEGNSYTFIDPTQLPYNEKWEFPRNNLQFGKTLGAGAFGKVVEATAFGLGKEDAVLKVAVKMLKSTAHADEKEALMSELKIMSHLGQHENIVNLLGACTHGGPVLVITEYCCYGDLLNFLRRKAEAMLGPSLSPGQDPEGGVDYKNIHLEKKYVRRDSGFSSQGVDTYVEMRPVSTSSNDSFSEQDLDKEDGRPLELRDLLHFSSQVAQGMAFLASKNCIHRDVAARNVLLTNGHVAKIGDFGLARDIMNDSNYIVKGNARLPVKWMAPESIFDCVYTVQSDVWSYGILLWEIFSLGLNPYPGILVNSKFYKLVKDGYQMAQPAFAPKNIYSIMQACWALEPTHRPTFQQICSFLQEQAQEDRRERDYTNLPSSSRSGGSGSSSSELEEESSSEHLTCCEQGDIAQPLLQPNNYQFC

[20] = target: PRKCI (Homo sapiens, UniProt P41743); conditions: 0.1 µM; binder
[21] = target: EPHA2 (Homo sapiens, UniProt P29317); conditions: 0.1 µM; binder
Chain of EPHA2 (P29317 whole entry): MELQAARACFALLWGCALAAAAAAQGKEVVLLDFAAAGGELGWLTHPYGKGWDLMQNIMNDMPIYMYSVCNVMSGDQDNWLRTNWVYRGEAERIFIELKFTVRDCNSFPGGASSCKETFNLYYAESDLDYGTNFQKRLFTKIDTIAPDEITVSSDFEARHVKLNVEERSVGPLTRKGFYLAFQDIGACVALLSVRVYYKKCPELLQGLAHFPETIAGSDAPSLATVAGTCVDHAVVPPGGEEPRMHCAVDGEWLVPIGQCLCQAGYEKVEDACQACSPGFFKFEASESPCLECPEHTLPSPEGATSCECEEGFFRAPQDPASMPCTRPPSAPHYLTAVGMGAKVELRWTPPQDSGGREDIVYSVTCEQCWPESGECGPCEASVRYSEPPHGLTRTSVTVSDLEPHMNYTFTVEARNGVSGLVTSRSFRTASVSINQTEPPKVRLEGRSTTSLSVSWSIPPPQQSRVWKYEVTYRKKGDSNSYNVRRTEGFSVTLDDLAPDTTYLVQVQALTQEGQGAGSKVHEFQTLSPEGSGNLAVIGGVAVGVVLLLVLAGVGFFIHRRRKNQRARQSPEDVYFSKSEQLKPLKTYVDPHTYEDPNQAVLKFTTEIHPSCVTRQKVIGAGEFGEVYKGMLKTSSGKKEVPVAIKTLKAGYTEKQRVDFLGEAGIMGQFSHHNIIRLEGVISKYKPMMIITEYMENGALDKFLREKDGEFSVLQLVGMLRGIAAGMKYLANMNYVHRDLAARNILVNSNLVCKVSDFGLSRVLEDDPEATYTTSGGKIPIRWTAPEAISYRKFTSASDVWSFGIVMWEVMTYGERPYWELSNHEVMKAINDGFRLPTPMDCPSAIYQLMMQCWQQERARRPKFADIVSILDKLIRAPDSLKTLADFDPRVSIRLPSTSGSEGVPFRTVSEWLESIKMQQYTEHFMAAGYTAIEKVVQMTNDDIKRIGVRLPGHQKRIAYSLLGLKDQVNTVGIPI

[22] = target: NDR2 (Homo sapiens, UniProt Q9Y2H1); conditions: 0.1 µM; binder
[23] = target: PRKD2 (Homo sapiens, UniProt Q9BZL6); conditions: 0.1 µM; binder
[24] = target: YSK1 (Homo sapiens, UniProt O00506); conditions: 0.1 µM; binder
[25] = target: MAPKAPK5 (Homo sapiens, UniProt Q8IW41); conditions: 0.1 µM; binder
[26] = target: SGK3 (Homo sapiens, UniProt Q96BR1); conditions: 0.1 µM; binder
[27] = target: FAK (Homo sapiens, UniProt Q05397); conditions: 0.1 µM; binder
[28] = target: p38-beta (Homo sapiens, UniProt Q15759); conditions: 0.1 µM; binder
[29] = target: FGFR1 (Homo sapiens, UniProt P11362); conditions: 0.1 µM; binder
[30] = target: TLK1 (Homo sapiens, UniProt Q9UKI8); conditions: 0.1 µM; binder
[31] = target: EPHB6 (Homo sapiens, UniProt O15197); conditions: 0.1 µM; binder

Chain of MAP3K1 (Q13233 whole entry): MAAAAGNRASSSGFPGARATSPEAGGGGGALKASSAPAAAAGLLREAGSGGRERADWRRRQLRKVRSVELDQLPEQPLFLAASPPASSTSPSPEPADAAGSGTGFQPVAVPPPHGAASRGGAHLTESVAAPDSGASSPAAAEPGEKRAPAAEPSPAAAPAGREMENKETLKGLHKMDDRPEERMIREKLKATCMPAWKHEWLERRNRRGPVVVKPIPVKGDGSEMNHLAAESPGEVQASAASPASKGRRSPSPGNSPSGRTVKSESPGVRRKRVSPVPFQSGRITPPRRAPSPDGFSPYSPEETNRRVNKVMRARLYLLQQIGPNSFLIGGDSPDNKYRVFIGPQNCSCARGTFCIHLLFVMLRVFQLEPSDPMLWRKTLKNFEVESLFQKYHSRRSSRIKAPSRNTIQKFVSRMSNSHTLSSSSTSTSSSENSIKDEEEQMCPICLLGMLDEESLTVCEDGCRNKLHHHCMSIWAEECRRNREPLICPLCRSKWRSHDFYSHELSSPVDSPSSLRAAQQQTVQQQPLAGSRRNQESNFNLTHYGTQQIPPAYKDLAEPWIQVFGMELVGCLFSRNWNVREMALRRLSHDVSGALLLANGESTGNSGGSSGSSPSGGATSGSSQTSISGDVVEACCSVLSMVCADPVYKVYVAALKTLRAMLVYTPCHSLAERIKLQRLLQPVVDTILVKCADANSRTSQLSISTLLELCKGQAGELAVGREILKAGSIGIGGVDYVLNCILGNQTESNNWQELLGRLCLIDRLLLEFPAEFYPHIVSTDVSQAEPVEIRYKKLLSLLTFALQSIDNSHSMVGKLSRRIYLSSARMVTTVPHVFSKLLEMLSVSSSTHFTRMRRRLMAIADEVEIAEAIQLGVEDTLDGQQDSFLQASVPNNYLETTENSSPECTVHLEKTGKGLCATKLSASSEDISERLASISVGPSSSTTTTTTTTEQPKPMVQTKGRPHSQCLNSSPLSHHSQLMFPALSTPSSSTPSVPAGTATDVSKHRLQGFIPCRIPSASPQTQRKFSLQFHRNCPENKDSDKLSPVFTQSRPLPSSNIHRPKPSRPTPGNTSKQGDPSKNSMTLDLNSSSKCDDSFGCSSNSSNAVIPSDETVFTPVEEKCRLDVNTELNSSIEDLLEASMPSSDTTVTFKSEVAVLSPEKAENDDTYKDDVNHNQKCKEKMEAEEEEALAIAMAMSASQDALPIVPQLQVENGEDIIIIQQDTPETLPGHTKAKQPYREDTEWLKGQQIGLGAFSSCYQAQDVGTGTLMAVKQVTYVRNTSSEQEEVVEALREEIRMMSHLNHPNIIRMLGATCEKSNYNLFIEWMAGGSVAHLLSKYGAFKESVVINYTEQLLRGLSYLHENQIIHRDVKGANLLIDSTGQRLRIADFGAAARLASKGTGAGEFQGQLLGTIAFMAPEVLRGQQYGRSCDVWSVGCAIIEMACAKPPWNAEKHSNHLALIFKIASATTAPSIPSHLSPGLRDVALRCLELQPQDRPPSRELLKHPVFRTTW

Structure (SMILES): CNc1ncc2cc(-c3ccc(-c4cccc(C)n4)cc3Cl)c(=O)n(C[C@H]3OC[C@H](N)CO3)c2n1 [compound 6, G-5555]
- Percent Control [1]: 81%
- Percent Control [2]: 100%
- Percent Control [3]: 100%
- Percent Control [4]: 93%
- Percent Control [5]: 100%
- Percent Control [6]: 76%
- Percent Control [7]: 77%
- Percent Control [8]: 100%
- Percent Control [9]: 82%
- Percent Control [10]: 100%
- Percent Control [11]: 89%
- Percent Control [12]: 100%
- Percent Control [13]: 93%
- Percent Control [14]: 97%
- Percent Control [15]: 100%
- Percent Control [16]: 100%
- Percent Control [17]: 97%
- Percent Control [18]: 100%
- Percent Control [19]: 89%
- Percent Control ([19]; autoinhibited): 97%
- Percent Control [20]: 97%
- Percent Control [21]: 100%
- Percent Control [22]: 100%
- Percent Control [23]: 92%
- Percent Control [24]: 40%
- Percent Control [25]: 100%
- Percent Control [26]: 93%
- Percent Control [27]: 98%
- Percent Control [28]: 97%
- Percent Control [29]: 100%
- Percent Control [30]: 100%
- Percent Control [31]: 61%
